According to US7732471B2, “6-oxazol-4-ylmetholmethoxy-alko-alkoxymethyl substituted benzoic acid derivatives forming peroxisome proliferator—activated receptor (PPAR) ligands, process for their preparation and methods of use thereof” (Sanofi-Aventis, priority 2005, dated 2010):

Assays:
human PPARalpha = target: T1, human PPARalpha (Homo sapiens, UniProt Q07869); assay: Cellular PPARalpha assay (stably transfected HEK luciferase reporter cell line); type: cell-based; conditions: PPARalpha reporter cell line (HEK, GR-GAL4-humanPPARalpha-LBD), 24 h incubation
T1 construct: human PPARalpha receptor (amino acids S167-Y468); expressed in transfected cells; host or cells: HEK cells, stably transfected (pcDNA3 construct)
T1 sequence (Q07869 167-468): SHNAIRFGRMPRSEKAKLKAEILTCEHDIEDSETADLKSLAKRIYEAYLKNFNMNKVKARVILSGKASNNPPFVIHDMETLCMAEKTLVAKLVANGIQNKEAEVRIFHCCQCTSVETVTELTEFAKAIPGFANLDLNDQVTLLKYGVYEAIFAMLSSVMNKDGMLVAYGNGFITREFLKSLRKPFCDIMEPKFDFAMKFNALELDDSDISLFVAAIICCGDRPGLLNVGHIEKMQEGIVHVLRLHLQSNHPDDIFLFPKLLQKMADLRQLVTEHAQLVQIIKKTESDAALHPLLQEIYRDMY
Protocol: Determination of EC50 Values of PPAR Agonists in the Cellular PPARalpha Assay
The potency of substances which bind to human PPARalpha and activate it in an agonistic manner is analyzed using a stably transfected HEK cell line (HEK=human embryonic kidney) which is referred to here as PPARalpha reporter cell line. It contains two genetic elements, a luciferase reporter element (pdeltaM-GAL4-Luc-Zeo) and a PPARalpha fusion protein (GR-GAL4-humanPPARalpha-LBD) which mediates expression of the luciferase reporter element depending on a PPARalpha ligand. The stably and constitutively expressed fusion protein GR-GAL4-humanPPARalpha-LBD binds in the cell nucleus of the PPARalpha reporter cell line via the GAL4 protein portion to the GAL4 DNA binding motifs 5′-upstream of the luciferase reporter element which is stably integrated in the genome of the cell line. There is only little expression of the luciferase reporter gene without addition of a PPARalpha ligand if fatty acid-depleted fetal calf serum (cs-FCS) is used in the assay. PPARalpha ligands bind and activate the PPARalpha fusion protein and thereby bring about expression of the luciferase reporter gene. The luciferase which is formed can be detected by means of chemiluminescence via an appropriate substrate.
The PPARalpha reporter cell line was prepared in two steps. Firstly, the luciferase reporter element was constructed and stably transfected into HEK cells. For this purpose, five binding sites of the yeast transcription factor GAL4 (in each case 5′-CGGAGTACTGTCCTCCGAG-3′) were cloned in 5′-upstream of a 68 bp-long minimal MMTV promoter (Genbank Accession #V01175). The minimal MMTV promoter section contains a CCAAT box and a TATA element in order to enable efficient transcription by RNA polymerase II. The cloning and sequencing of the GAL4-MMTV construct took place in analogy to the description of Sambrook J. et. al. (Molecular cloning, Cold Spring Harbor Laboratory Press, 1989). Then the complete Photinus pyralis luciferase gene (Genbank Accession #M15077) was cloned in 3′-downstream of the GAL4-MMTV element. After sequencing, the luciferase reporter element consisting of five GAL4 binding sites, MMTV promoter and luciferase gene was subcloned into a plasmid which confers zeozin resistance in order to obtain the plasmid pdeltaM-GAL4-Luc-Zeo. This vector was transfected into HEK cells in accordance with the statements in Ausubel, F. M. et al. (Current protocols in molecular biology, Vol. 1-3, John Wiley & Sons, Inc., 1995).
In a second step, the PPARalpha fusion protein (GR-GAL4-humanPPARalpha-LBD) was introduced into the stable cell clone described. For this purpose, initially the cDNA coding for the N-terminal 76 amino acids of the glucocorticoid receptor (Genbank Accession #P04150) was linked to the cDNA section coding for amino acids 1-147 of the yeast transcription factor GAL4 (Genbank Accession #P04386). The cDNA of the ligand-binding domain of the human PPARalpha receptor (amino acids S167-Y468; Genbank Accession #S74349) was cloned in at the 3′ end of this GR-GAL4 construct. The fusion construct prepared in this way (GR-GAL4-humanPPARalpha-LBD) was subcloned into the plasmid pcDNA3 (from Invitrogen) in order to enable constitutive expression therein by the cytomegalovirus promoter. This plasmid was linearized with a restriction endonuclease and stably transfected into the previously described cell clone containing the luciferase reporter element. The finished PPARalpha reporter cell line which contains a luciferase reporter element and constitutively expresses the PPARalpha fusion protein (GR-GAL4-humanPPARalpha-LBD) was isolated by selection with zeozin (0.5 mg/ml) and G418 (0.5 mg/ml).
The activity of PPARalpha agonists is determined in a 3-day assay which is described below: […]

human PPARgamma = target: T2, human PPARgamma (Homo sapiens, UniProt P37231); assay: Cellular PPARgamma assay (transiently transfected HEK cells, luciferase reporter); type: cell-based; conditions: HEK cells transiently transfected with GAL4-humanPPARgammaLBD, 48 h incubation, firefly/Renilla luciferase ratio
T2 construct: human PPARgamma receptor (amino acids I152-Y475); expressed in transfected cells; host or cells: HEK cells, transiently transfected with pcDNA3-GAL4-humanPPARgammaLBD
T2 sequence (P37231 182-505 limits assumed): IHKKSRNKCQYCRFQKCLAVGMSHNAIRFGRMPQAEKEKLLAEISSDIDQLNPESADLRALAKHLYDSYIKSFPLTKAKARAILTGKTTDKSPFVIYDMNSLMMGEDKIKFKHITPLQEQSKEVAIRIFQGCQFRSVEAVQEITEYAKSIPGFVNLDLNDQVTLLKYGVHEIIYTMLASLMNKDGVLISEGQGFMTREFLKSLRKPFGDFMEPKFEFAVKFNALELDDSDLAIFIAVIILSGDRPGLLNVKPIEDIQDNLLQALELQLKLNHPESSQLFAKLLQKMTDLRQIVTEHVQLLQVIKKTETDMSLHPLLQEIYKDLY
Text: Determination of EC50 Values of PPAR Agonists in the Cellular PPARgamma Assay
A transient transfection system is employed to determine the cellular PPARgamma activity of PPAR agonists. It is based on the use of a luciferase reporter plasmid (pGL3basic-5xGAL4-TK) and of a PPARgamma expression plasmid (pcDNA3-GAL4-humanPPARgammaLBD). Both plasmids are transiently transfected into human embryonic kidney cells (HEK cells). There is then expression in these cells of the fusion protein GAL4-humanPPARgammaLBD which binds to the GAL4 binding sites of the reporter plasmid. In the presence of a PPARgamma-active ligand, the activated fusion protein GAL4-humanPPARgammaLBD induces expression of the luciferase reporter gene, which can be detected in the form of a chemiluminescence signal after addition of a luciferase substrate. As a difference from the stably transfected PPARalpha reporter cell line, in the cellular PPARgamma assay the two components (luciferase reporter plasmid and PPARgamma expression plasmid) are transiently transfected into HEK cells because stable and permanent expression of the PPARgamma fusion protein is cytotoxic.
The luciferase reporter plasmid pGL3basic-5xGAL4-TK is based on the vector pGL3basic from Promega. The reporter plasmid is prepared by cloning five binding sites of the yeast transcription factor GAL4 (each binding site with the sequence 5′-CTCGGAGGACAGTACTCCG-3′), together with a 160 bp-long thymidine kinase promoter section (Genbank Accession #AF027128) 5′-upstream into pGL3basic. 3′-downstream of the thymidine kinase promoter is the complete luciferase gene from Photinus pyralis (Genbank Accession #M15077), which is already a constituent of the plasmid pGL3basic used. The cloning and sequencing of the reporter plasmid pGL3basic-5xGAL4-TK took place in analogy to the description in Sambrook J. et. al. (Molecular cloning, Cold Spring Harbor Laboratory Press, 1989).
The PPARgamma expression plasmid pcDNA3-GAL4-humanPPARgammaLBD was prepared by first cloning the cDNA coding for amino acids 1-147 of the yeast transcription factor GAL4 (Genbank Accession #P04386) into the plasmid pcDNA3 (from Invitrogen) 3′-downstream of the cytomegalovirus promoter. Subsequently, the cDNA of the ligand-binding domain (LBD) of the human PPARgamma receptor (amino acids I152-Y475; Accession #g1480099) 3′-downstream of the GAL4 DNA binding domain was cloned. Cloning and sequencing of the PPARgamma expression plasmid pcDNA3-GAL4-humanPPARgammaLBD again took place in analogy to the description in Sambrook J. et. al. (Molecular cloning, Cold Spring Harbor Laboratory Press, 1989). Besides the luciferase reporter plasmid pGL3basic-5xGAL4-TK and the PPARgamma expression plasmid pcDNA3-GAL4-humanPPARgammaLBD, also used for the cellular PPARgamma assay are the reference plasmid pRL-CMV (from Promega) and the plasmid pBluescript SK(+) from Stratagene. All four plasmids were prepared using a plasmid preparation kit from Qiagen, which ensured a plasmid quality with a minimal endotoxin content, before transfection into HEK cells.
The activity of PPARgamma agonists is determined in a 4-day assay which is described below. Before the transfection, HEK cells are cultivated in DMEM medium (#41965-039, Invitrogen) which is mixed with the following additions: 10% FCS (#16000-044, Invitrogen), 1% penicillin-streptomycin solution (#15140-122, Invitrogen) and 2 mM L-glutamine (#25030-024, Invitrogen).
A transfection mixture (solution A) which contains all four plasmids previously described in a DMEM medium, is prepared. The following amounts are used to make up 3 ml of solution A for each 96-well microtiter plate for an assay: 2622 μl of antibiotic- and serum-free DMEM medium (#41965-039, Invitrogen), 100 μl of reference plasmid pRL-CMV (1 ng/μl), 100 μl of luciferase reporter plasmid pGL3basic-5xGAL4-TK (10 ng/μl), 100 μl of PPARgamma expression plasmid pcDNA3-GAL4-humanPPARgammaLBD (100 ng/μl) and 78 μl of plasmid pBluescript SK(+) (500 ng/μl). […]

| SMILES | EC50 (human PPARalpha) [nM] | EC50 (human PPARgamma) [nM] |
| --- | --- | --- |
| Cc1cccc(COCCCOCc2coc(-c3ccccc3)n2)c1C(=O)O [*, reference compound] | 1 | > 10000 |
| Cc1cccc(COCCCOCc2nc(-c3ccc(-c4ccccc4)cc3)oc2C)c1C(=O)O [Example 3, 2-Methyl-6-[3-(5-methyl-2-p-biphenyloxazol-4-ylmethoxy)propoxymethyl]benzoic acid] | 4.2 | 150 |
| Cc1cccc(COCCCOCc2nc(-c3ccc(Oc4ccccc4)cc3)oc2C)c1C(=O)O [Example 8, 2-Methyl-6-{3-[5-methyl-2-(4-phenoxyphenyl)oxazol-4-ylmethoxy]propoxymethyl}-benzoic acid] | 11 | 40 |
| COc1ccc(-c2nc(COCCCOCc3cccc(C)c3C(=O)O)c(C)o2)cc1OC [Example 11, 2-Methyl-6-{3-[5-methyl-2-(3,4-dimethoxyphenyl)oxazol-4-ylmethoxy]propoxymethyl}-benzoic acid] | 8.7 | 630 |
| CCc1oc(-c2cccc(OC)c2)nc1COCCCOCc1cccc(C)c1C(=O)O [Example 17] | 3.7 | 91 |
| Cc1ccc(-c2nc(COCCCOCc3cccc(C)c3C(=O)O)c(C3CCCCC3)o2)cc1 [Example 22, 2-Methyl-6-{3-[5-cyclohexyl-2-p-tolyloxazol-4-ylmethoxy]propoxymethyl}benzoic acid] | 22 | 710 |
| Cc1ccc(-c2nc(COCCCOCc3cccc(C)c3C(=O)O)c(-c3ccccc3)o2)cc1 [Example 23, 2-Methyl-6-[3-(5-phenyl-2-p-tolyloxazol-4-ylmethoxy)propoxymethyl]benzoic acid] | 88 | 1800 |
| COc1cccc(-c2nc(COCC(C)(C)COCc3cccc(C)c3C(=O)O)c(C)o2)c1 [Example 27, 2-{3-[2-(3-Methoxyphenyl)-5-methyloxazol-4-ylmethoxy]-2,2-dimethylpropoxymethyl}-6-methylbenzoic acid] | 13 | 390 |
| COc1cccc(-c2nc(COCCCCOCc3cccc(C)c3C(=O)O)c(C)o2)c1 [Example 31, 2-Methyl-6-{4-[2-(3-methoxyphenyl)-5-methyloxazol-4-ylmethoxy]butoxymethyl}-benzoic acid] | 1.4 | 17 |
| Cc1cccc(COCCCCOCc2nc(-c3cccc(C(F)(F)F)c3)oc2C(C)C)c1C(=O)O [Example 32, 2-{4-[5-Isopropyl-2-(3-trifluoromethylphenyl)oxazol-4-ylmethoxy]butoxymethyl}-6-methylbenzoic acid] | 1.6 | 72 |
| Cc1cccc(COCCCCOCc2nc(-c3ccc(-c4ccccc4)cc3)oc2C)c1C(=O)O [Example 33, 2-Methyl-6-[4-(2-p-biphenyl-5-methyloxazol-4-ylmethoxy)butoxymethyl]benzoic acid] | 21 | 14 |
